Test results as given in paper PMC11417994, “Cyclohexanediamine Triazole (CHDT) Functionalization Enables Labeling of Target Molecules with Al^18F/^68Ga/^111In” (Bioconjugate Chemistry, 2024).
Values joined by “and” are separate entries in the source; they are usually repeats but may differ in a detail not shown here. Equal values may be shown once.

Key:
PSMA [1] = target: T1, PSMA (Homo sapiens, UniProt Q04609); assay: Competition binding assay, LNCaP cell homogenates, radioligand [177Lu]Lu-PSMA-617; conditions: nonlabeled compounds; [177Lu]Lu-PSMA-617 12 nM; 37 °C, 60 min; Table 2 mean (SEM), Table S3 individual experiments and mean
T1 construct: Detection of endogenous PSMA expression in LNCaP and PC3 cells relative to β-actin expression by Western; host or cells: LNCaP human prostate carcinoma cells (monolayer, spheroids or Potter-Elvehjem homogenates)
T1 sequence (Q04609 whole entry): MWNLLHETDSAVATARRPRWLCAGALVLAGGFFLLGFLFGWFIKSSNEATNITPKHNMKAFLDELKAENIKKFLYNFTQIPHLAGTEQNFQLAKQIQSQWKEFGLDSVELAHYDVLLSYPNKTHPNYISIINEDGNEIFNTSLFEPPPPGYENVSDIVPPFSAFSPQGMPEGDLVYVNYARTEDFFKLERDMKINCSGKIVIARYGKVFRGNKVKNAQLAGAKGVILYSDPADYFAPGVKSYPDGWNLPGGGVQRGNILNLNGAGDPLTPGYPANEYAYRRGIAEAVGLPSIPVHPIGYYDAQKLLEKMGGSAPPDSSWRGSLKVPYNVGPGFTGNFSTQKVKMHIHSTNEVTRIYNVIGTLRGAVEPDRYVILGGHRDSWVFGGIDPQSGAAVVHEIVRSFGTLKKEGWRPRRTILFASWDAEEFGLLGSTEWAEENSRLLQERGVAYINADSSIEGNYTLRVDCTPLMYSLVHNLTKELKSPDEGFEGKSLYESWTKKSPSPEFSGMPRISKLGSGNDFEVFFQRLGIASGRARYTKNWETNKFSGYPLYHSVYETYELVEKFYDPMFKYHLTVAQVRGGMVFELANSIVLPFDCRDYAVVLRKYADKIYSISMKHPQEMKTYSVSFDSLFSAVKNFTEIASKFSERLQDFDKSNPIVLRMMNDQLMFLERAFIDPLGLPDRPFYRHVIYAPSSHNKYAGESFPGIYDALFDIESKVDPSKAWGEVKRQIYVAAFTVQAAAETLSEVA
Experimental: The binding affinity of the nonlabeled CHDT-PSMA-1/2/3, PSMA-1007, PSMA-617, and KuE was assessed in competition binding assays using LNCaP cell homogenates (∼1 × 10^6 cells/mL using Potter-Elvehjem) and the radioligand [^177Lu]Lu-PSMA-617 (n = 5 for CHDT-PSMA-1; n = 4 for CHDT-PSMA-2/3; n = 2 for PSMA-1007; n = 8 for PSMA-617; n = 6 for KuE). […] The assays were performed in a final volume of 200 μL. The incubation was stopped by washing the homogenate with cold PBS four times using a filter (Whatman GF/C, 90 min presoaked in 0.3% polyethylenimine) in a cell harvester (Brandel, USA). The radioactivity bound to the filter was measured in a gamma counter. Filter binding was determined for adjacent samples without cell homogenate. The experiments were performed two to four times in triplicates or quadruplicates. Inhibitory constants (Ki) were derived from nonlinear regression according to the model of “One site – Fit Ki” as implemented in GraphPad Prism 10. The Kd value of [^177Lu]Lu-PSMA-617 was determined in saturation binding assays using LNCaP cell homogenates to be 15.2 (±2.1) nM.

PSMA [2] = target: T1, PSMA; assay: Saturation binding (surface-bound and internalized), intact LNCaP cells as monolayer
Text: (§1) In addition to assessing the binding affinities for nonlabeled CHDT-PSMA-1/2/3, we sought to characterize the saturation binding of the Al^18F-, ^68Ga-, and ^111In-labeled compounds using LNCaP cells cultured in monolayers and as spheroids. The saturation binding curves for Al[^18F]F-CHDT-PSMA-1/2/3 are depicted in Figure 3, while the graphs for [^18F]PSMA-1007 and ^68Ga- and ^111In-labeled CHDT-PSMA-1/2/3 can be found in Figures S7–S9 in the Supporting Information. The binding parameters (Kd and Bmax) for Al[^18F]F-CHDT-PSMA-1/2/3 and [^18F]PSMA-1007 are summarized in Table 3 (for the ^68Ga- and ^111In-labeled compounds see Tables S4 and S5 in the Supporting Information). For the saturation binding assays, we recorded surface-bound radioligand (named “binding”), which refers to bound radioligand that can be removed by acid wash, and internalized or acid-resistant radioligand (named “internalization”), which refers to radioligand that remains cell-bound after acid wash. Consequently, two saturation binding plots were obtained and two sets of binding parameters (Kd/Bmax and Kd,int/Bmax,int) were derived.
(§2) For saturation assays in well plates, monolayers of LNCaP (sowing 5 × 10^4 cells/well in 48-well plates 2 days before the assay), as well as LNCaP spheroids were incubated with radiolabeled CHDT-PSMA-1/2/3 and PSMA-1007 (0.2 nM to 100 nM) with adjacent samples receiving KuE (0.8 mM) at 37 °C for 2 h. The number of experiments can be derived from the data in the Tables S4, S5, and S7 in the Supporting Information. After removing the incubation medium and washing of cells with ice-cold PBS (containing Mg^2+ and Ca^2+) the surface-bound activity was stripped with 4 °C cold acid-wash buffer (0.2 M glycine, 0.15 M NaCl, pH 3.0) for 10 min. The acid wash buffer was transferred from the wells to measuring tubes, as was the PBS buffer after washing once. Cytosolic activity (internalized radioligand) was determined after treatment with cell lysis buffer (1% SDS in 0.1 M NaOH) at 37 °C for 30 min. Cell surface and cytosolic activity were measured separately in a gamma counter. Time-depending internalization assays were performed only with cells in monolayer. The incubation (radioligand concentration 13 nM) for these assays was terminated after 10 min, 1 and 3 h, with ^111In and ^177Lu additionally after 24 and 48 h at 37 °C, respectively. During the internalization assays adjacent samples received KuE (0.8 mM) for PSMA blocking, methyl-β-cyclodextrin (MβCD; 3 mM) or KuE together with MβCD, 1 h before radioligand application. The number of experiments can be derived from the data of Figure S11 and associated table and from Table S8 in the Supporting Information.
(§3) Dissociations constants (Kd and Kd,int), as well as maximal binding capacities (Bmax and Bmax,int), were derived from specific binding data by nonlinear regression according to the model of “One site-specific binding” as implemented in GraphPad Prism 10. Protein content was determined using the bicinchoninic acid protein assay kit (Pierce, Thermo Scientific) to calculate the binding capacities in pmol/mg and for the time-depending internalization the internalized percent of administrated dose per μg protein (% AD/μg protein).

PSMA [3] = target: T1, PSMA; assay: Time-depending internalization assay, LNCaP cells as monolayer; type: cell-based; conditions: individual experiments; for specific internalization in the presence of MβCD: MβCD 3 mM; for specific internalization: radioligand 13 nM
Experimental: as §2, §3

LNCaP tumor xenograft = assay: Small animal PET imaging, LNCaP tumor xenograft mouse model; type: in vivo, mice
Experimental: All animal experiments were performed in accordance with the German Animal Welfare regulations and were approved by the local ethics committee for animal experiments (DD24.1-51-31/449/49, Oct 26, 2018). A PSMA-positive prostate cancer xenograft model was generated by subcutaneous injection of human LNCaP cells into the right shoulder of 8–12 week-old male nude mice (Rj:NMRI-Foxn1^nu/nu, Janvier Laboratories, Le Genest-Saint-Isle, France). Imaging studies were performed when subcutaneous tumors reached a diameter of at least 6 mm. General anesthesia of the animals was induced and maintained by inhalation of 10% (v/v) desflurane in 30/70% (v/v) oxygen/air. Animals were continuously warmed at 37 °C during anesthesia.
Positron emission tomography (PET) was performed in vivo using the nanoScan PET/CT scanner (Mediso Medical Imaging Systems, Budapest, Hungary), especially suited for small animals. Each animal received 8–12 MBq of the reference compound [^18F]PSMA-1007 or the radioligands Al[^18F]F-CHDT-PSMA-1/2/3 in phosphate-buffered saline by intravenous injection via a tail vein catheter. At the time of injection, molar activities and radiochemical purities of the compounds were as follows: [^18F]PSMA-1007 (15 MBq/nmol, >99%); Al[^18F]F-CHDT-PSMA-1 (10 MBq/nmol, 99%); Al[^18F]F-CHDT-PSMA-2 (6.3 MBq/nmol, 98%); Al[^18F]F-CHDT-PSMA-3 (4.5 MBq/nmol, >99%). Specificity of target binding was assessed by blocking PSMA binding sites with 2-phosphonomethyl pentanedioic acid (2-PMPA), administered simultaneously with the radioligand at a dose of 50 mg/kg. With injection of the radioligand, emission of the annihilation photons was recorded continuously in coincidence mode of 1:5 for 120 min. A corresponding CT image was acquired with each PET scan and used for attenuation correction and anatomical referencing. From three-dimensional list mode data, events within the energy window of 400–600 keV were extracted and sorted into 36 time frames (f1–f36) with a sequence of 15 × 10 s, 5 × 30 s, 5 × 60 s, 4 × 300 s, 3 × 600 s, and 4 × 900 s. For each time frame, a PET image was reconstructed with the three-dimensional (3D) Tera-Tomo algorithm, with a voxel size of 0.4 mm, applying corrections for random events, scattering, attenuation, and decay.
Three-dimensional regions of interest (ROIs) were defined within an image series of selected time frames using fixed intensity thresholds for delineation of organs: bones at knee joint position (0–120 min, 55%), cardiac blood volume (0–1.7 min, 70%), gall bladder (0–120 min, 39%), intestine (0–120 min, 5%), kidneys (0–2.5 min, 15%), liver (0–2.5 min, 55%), muscle (0–120 min, 0%), parotid glands (0–120 min, 39%), tumor (0–120 min, 39%), and urinary bladder (0–120 min, 5%). Activity concentrations in tissue were determined as standardized uptake value (SUV = [MBq detected activity/mL tissue]/[MBq injected activity/g body weight]) and expressed as SUVmean (ROI-averaged). Time-activity curves were generated and analyzed using Prism (GraphPad Software, San Diego CA, USA). […] Areas under curves (AUC) were calculated using the trapezoid rule. Statistical significance of mean differences was tested by analysis of variance (ANOVA) using the Šidák test.

PSMA [4] = target: T1, PSMA; assay: Saturation binding (surface-bound and internalized), LNCaP spheroids
Text: as §1
For the formation of spheroids, the LNCaP cells were incubated overnight in a normal culture bottle with biocompatible nanoparticles ([…] with 80 μL of a suspension consisting of Au, Fe2O3 and poly-L-lysine called Nanoshuttle, Greiner Bio-One GmbH, Germany). After harvesting and cell counting, 10,000 cells/well of a 24-well plate or 7,000 cells/well of a 96-well plate (cell-repellent plates) were sown. The well plates were placed on matching plates with button magnets (Greiner Bio-One GmbH, Germany). The magnetized LNCaP cells formed suitable spheroids that were used after 5 d.
as §2, §3

[5] = Al^18F-labeled conjugate or [18F]PSMA-1007, surface-bound
[6] = SUVmean ratio 105–120 min after injection, mean ± SD
[7] = Al^18F-labeled conjugate or [18F]PSMA-1007, acid-resistant fraction, read-out: Kd,int (internalization)

How did the Ki (PSMA [1]) turn out when `O=C(O)CC[C@H](NC(=O)N[C@@H](CCCCNC(=O)[C@H](Cc1ccc2ccccc2c1)NC(=O)[C@H]1CC[C@H](CNC(=O)CN2CCN(CC(=O)O)CCN(CC(=O)O)CCN(CC(=O)O)CC2)CC1)C(=O)O)C(=O)O` [PSMA-617] was run?
The Ki was 4.1 nM and 2.59 nM and 5.55 nM and 5.49 nM and 4.57 nM and 3.33 nM and 4.02 nM and 3.71 nM and 4.2 nM.

How did the Kd (PSMA [2]; Al^18F-labeled conjugate or [18F]PSMA-1007, surface-bound, 37 °C, 2 h, read-out: Kd (binding)) turn out when `O=C(O)CC[C@H](NC(=O)N[C@@H](CCCCNC(=O)[C@H](Cc1ccc2ccccc2c1)NC(=O)c1ccc(CNC(=O)[C@H](CCC(=O)O)NC(=O)[C@H](CCC(=O)O)NC(=O)c2ccc(F)nc2)cc1)C(=O)O)C(=O)O` [[^18F]PSMA-1007] was run?
Its Kd is 5.4 nM.

What does the source list for `O=C(O)CC[C@H](NC(=O)N[C@@H](CCCCNC(=O)[C@H](Cc1ccc2ccccc2c1)NC(=O)c1ccc(CNC(=O)[C@H](CCC(=O)O)NC(=O)[C@H](CCC(=O)O)NC(=O)c2ccc([18F])nc2)cc1)C(=O)O)C(=O)O` [[^18F]PSMA-1007]?
Bmax (binding) (PSMA [2]; [5]): 1.11 pmol/mg; specific internalization in the presence of MβCD (PSMA [3]; 10 min): 0.02232 % AD/µg protein and 0.008008 % AD/µg protein; specific internalization (PSMA [3]; 10 min): 0.03696 % AD/µg protein and 0.02616 % AD/µg protein; specific internalization in the presence of MβCD (PSMA [3]; 1 h): 0.1091 % AD/µg protein and 0.02833 % AD/µg protein and 0.1038 % AD/µg protein; specific internalization (PSMA [3]; 1 h): 0.07765 % AD/µg protein and 0.1071 % AD/µg protein and 0.1171 % AD/µg protein; specific internalization in the presence of MβCD (PSMA [3]; 3 h): 0.04566 % AD/µg protein and 0.1478 % AD/µg protein and 0.1495 % AD/µg protein; specific internalization (PSMA [3]; 3 h): 0.2295 % AD/µg protein and 0.1701 % AD/µg protein and 0.1562 % AD/µg protein; average SUVmean in bone tissue (LNCaP tumor xenograft; 120 min p.i.): 0.21; Tu/Blood (LNCaP tumor xenograft; [6]): 14 ± 3.0; Tu/Bone (LNCaP tumor xenograft; [6]): 18 ± 7.9; Tu/Kidney (LNCaP tumor xenograft; [6]): 0.5 ± 0.2; Tu/Liver (LNCaP tumor xenograft; [6]): 16 ± 6.8; Tu/Muscle (LNCaP tumor xenograft; [6]): 20 ± 6.9

Which “Bmax,int (internalization)” value (PSMA [2]; Al^18F-labeled conjugate or [18F]PSMA-1007, acid-resistant fraction) does the source give for PSMA-1007 [reference compound] here?
Its value is 1.02 ± 0.21 pmol/mg.

What about the Kd (PSMA [2]; [7]) of the same molecule?
Its Kd is 10.1 ± 5.9 nM.

What about the “Bmax (binding)” value (PSMA [2]; [5]) of the same molecule?
Its value is 1.11 ± 0.06 pmol/mg.

And the Kd (PSMA [4]; [7])?
The Kd was 25.8 ± 18.6 nM.

What about the Kd (PSMA [4]; Al^18F-labeled conjugate or [18F]PSMA-1007, surface-bound, read-out: Kd (binding)) of the same molecule?
The Kd was 12.9 ± 1.2 nM.

And the Ki (PSMA [1])?
The Ki was 2 nM and 1.39 nM and 1.7 nM.
